# Earlier results, collected in patent US7919468B2, “Compounds useful as modulators of the proteasome activity” (Centre National de la Recherche Scientifique (C.N.R.S.), priority 2005, dated 2011).
# How the values were obtained:
# Settings in all cases: cited from earlier work
# m-calpain = biological target: T1, m-calpain (Homo sapiens, UniProt P17655)
# T1 sequence (P17655 1-700): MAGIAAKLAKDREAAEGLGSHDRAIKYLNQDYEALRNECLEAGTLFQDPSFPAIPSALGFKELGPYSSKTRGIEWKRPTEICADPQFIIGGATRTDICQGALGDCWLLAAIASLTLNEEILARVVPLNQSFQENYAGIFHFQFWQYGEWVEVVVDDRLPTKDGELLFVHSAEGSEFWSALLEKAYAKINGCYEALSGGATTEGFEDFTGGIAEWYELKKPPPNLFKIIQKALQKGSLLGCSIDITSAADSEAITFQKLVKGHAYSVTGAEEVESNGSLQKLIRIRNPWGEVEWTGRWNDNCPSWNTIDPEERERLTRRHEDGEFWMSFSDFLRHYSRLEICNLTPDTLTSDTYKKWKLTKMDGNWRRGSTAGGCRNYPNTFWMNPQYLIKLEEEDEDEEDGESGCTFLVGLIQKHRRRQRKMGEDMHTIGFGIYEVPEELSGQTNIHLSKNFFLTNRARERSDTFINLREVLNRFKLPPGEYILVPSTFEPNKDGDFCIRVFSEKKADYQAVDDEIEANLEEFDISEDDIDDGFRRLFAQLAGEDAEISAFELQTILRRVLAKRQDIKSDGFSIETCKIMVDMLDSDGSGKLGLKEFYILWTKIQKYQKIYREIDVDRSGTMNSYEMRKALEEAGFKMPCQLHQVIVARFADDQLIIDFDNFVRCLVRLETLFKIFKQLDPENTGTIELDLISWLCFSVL
# T1 sequence (P04632 1-268 partner): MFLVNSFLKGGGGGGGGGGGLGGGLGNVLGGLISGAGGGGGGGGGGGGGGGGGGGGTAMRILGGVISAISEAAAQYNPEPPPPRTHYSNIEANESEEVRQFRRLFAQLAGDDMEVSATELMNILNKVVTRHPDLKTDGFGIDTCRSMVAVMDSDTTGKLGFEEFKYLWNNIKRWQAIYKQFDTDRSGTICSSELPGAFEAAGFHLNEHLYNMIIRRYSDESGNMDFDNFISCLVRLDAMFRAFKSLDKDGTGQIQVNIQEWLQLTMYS
# cathepsin-L = cathepsin-L (Homo sapiens, UniProt P07711)
# trypsin = biological target: T2, trypsin (Bos taurus, UniProt P00760)
# T2 construct: gene PRSS1
# T2 sequence (P00760 24-246): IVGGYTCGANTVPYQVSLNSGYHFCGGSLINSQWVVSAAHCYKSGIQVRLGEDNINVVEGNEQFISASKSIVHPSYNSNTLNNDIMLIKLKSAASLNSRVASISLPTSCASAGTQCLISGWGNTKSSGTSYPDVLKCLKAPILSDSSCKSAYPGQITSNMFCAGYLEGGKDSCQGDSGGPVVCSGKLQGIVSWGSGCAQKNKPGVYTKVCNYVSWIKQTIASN
# cathepsin A = biological target: T3, cathepsin A (Homo sapiens, UniProt P10619)
# T3 sequence (P10619 29-480): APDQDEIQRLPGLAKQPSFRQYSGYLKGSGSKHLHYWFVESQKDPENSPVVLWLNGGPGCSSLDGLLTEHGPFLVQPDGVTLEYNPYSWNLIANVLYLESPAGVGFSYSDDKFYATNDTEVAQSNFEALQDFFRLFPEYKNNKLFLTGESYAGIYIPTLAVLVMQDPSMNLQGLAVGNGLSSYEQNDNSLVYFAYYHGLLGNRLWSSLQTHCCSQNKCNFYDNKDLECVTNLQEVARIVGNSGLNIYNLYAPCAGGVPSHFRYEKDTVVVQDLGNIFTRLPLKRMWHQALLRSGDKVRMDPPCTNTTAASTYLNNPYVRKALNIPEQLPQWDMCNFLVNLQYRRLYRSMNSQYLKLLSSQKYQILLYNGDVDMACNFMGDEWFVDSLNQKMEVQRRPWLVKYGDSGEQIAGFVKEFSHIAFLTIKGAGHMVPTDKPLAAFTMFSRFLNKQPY
# [1] = biological target: cytosolic tripeptidyl peptidase II (Homo sapiens, UniProt P29144)
# Sequence of cytosolic tripeptidyl peptidase II (P29144 whole entry): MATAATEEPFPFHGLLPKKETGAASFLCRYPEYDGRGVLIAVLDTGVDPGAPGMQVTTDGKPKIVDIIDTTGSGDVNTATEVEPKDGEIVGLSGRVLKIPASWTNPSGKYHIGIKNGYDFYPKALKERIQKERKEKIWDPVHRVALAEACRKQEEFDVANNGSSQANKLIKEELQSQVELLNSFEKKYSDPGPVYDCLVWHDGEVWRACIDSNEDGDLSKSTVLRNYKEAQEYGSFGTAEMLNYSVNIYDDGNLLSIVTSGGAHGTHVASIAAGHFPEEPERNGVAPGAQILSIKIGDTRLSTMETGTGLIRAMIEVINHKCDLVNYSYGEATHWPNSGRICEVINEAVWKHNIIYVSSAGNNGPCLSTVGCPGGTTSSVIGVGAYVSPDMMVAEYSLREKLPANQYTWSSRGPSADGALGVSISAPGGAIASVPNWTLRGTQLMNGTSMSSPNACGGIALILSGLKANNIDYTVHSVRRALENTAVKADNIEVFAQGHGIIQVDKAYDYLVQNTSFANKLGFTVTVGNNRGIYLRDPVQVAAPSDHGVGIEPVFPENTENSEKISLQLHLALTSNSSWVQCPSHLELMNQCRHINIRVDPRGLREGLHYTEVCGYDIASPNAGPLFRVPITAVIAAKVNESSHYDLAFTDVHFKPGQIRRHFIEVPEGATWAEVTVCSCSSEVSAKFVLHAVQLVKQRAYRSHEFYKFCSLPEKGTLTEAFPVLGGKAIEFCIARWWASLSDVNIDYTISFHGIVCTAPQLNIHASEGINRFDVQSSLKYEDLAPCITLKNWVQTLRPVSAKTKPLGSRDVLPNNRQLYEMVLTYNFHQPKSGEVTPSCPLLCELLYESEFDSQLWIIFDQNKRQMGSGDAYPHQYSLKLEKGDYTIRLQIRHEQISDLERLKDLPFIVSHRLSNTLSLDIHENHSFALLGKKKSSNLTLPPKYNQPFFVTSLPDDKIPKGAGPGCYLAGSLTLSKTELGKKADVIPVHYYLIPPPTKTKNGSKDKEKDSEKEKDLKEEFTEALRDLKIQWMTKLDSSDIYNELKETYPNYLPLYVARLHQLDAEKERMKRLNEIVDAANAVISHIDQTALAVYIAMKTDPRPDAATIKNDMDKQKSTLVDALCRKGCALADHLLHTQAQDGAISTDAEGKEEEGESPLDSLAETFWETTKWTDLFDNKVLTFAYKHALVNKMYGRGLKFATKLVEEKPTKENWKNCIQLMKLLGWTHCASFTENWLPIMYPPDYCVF
# Sequence of cathepsin-L (P07711 114-333, species assumed): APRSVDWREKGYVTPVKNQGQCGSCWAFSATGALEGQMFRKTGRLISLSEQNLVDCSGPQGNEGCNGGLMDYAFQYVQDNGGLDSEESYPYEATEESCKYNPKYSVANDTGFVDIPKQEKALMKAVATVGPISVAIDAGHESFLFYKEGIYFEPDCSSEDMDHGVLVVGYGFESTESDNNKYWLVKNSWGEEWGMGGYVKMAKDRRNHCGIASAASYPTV
Structure (SMILES),inhibition of m-calpain (m-calpain),inhibition of cathepsin-L (cathepsin-L),inhibition of trypsin (trypsin),inhibition of cathepsin A (cathepsin A),inhibition of tripeptidyl peptidase II [1]
C/C=C\NC(=O)[C@H]1NC(=O)[C@H](CC(N)=O)NC(=O)[C@@H](NC(=O)C(=O)[C@@H](C)CC)Cc2ccc(O)c(c2)-c2cccc3c2NC(=O)[C@@]3(O)[C@@H]1O [TMC-95A],no inhibition,no inhibition,no inhibition,,
"CC(=O)N[C@@H](CSC(=O)[C@]1([C@@H](O)C(C)C)NC(=O)[C@H](C)[C@@H]1O)C(=O)O [Lactacystin, lactacystin]",,,,inhibited,inhibited
